From the NIST ThermoML archive (doi:10.1016/j.jct.2006.02.001)
± gives the expanded uncertainty stated by the source.

Key:
[1] = refractive index (Na D-line) (dimensionless); xn = mol fraction of the nth substance listed; details: 101 kPa, Liquid
[2] = xn = mol fraction of the nth substance listed; details: 101 kPa, Liquid
[3] = refractive index (Na D-line) (dimensionless); details: 101.33 kPa, Liquid
[4] = 101 kPa, Liquid

COc1ccccc1 [anisole] + c1ccccc1
Details | mass density, 288.15 K [kg/m3] | mass density, 293.15 K [kg/m3] | mass density, 298.15 K [kg/m3] | mass density, 303.15 K [kg/m3] | refractive index, 288.15 K | refractive index, 293.15 K | refractive index, 298.15 K | refractive index, 303.15 K
[1], x1 = 0.105 | – | – | – | – | 1.5076 ± 0.0096 | 1.5032 ± 0.0096 | 1.5001 ± 0.0097 | 1.4884 ± 0.0099
[1], x1 = 0.201 | – | – | – | – | 1.51 ± 0.0096 | 1.5051 ± 0.0096 | 1.5019 ± 0.0097 | 1.4914 ± 0.0098
[1], x1 = 0.3173 | – | – | – | – | 1.5127 ± 0.0097 | 1.5072 ± 0.0096 | 1.5041 ± 0.0097 | 1.4949 ± 0.0098
[1], x1 = 0.4192 | – | – | – | – | 1.5149 ± 0.0097 | 1.509 ± 0.0096 | 1.5058 ± 0.0097 | 1.4978 ± 0.0097
[1], x1 = 0.5126 | – | – | – | – | 1.5168 ± 0.0097 | 1.5105 ± 0.0096 | 1.5074 ± 0.0097 | 1.5003 ± 0.0097
[1], x1 = 0.6139 | – | – | – | – | 1.5188 ± 0.0097 | 1.5121 ± 0.0097 | 1.5089 ± 0.0096 | 1.5029 ± 0.0097
[1], x1 = 0.7067 | – | – | – | – | 1.5206 ± 0.0097 | 1.5134 ± 0.0097 | 1.5103 ± 0.0096 | 1.5052 ± 0.0097
[1], x1 = 0.797 | – | – | – | – | 1.5222 ± 0.0097 | 1.5147 ± 0.0097 | 1.5115 ± 0.0096 | 1.5073 ± 0.0096
[1], x1 = 0.9002 | – | – | – | – | 1.524 ± 0.0097 | 1.516 ± 0.0097 | 1.5129 ± 0.0096 | 1.5096 ± 0.0096
[1], x1 = 1 | – | – | – | – | 1.5256 ± 0.0097 | 1.5172 ± 0.0097 | 1.5141 ± 0.0096 | 1.5117 ± 0.0096
[2], x1 = 0.105 | 898.53 ± 3 | 891.31 ± 3.1 | 888.2 ± 3.1 | 882.91 ± 3.2 | – | – | – | –
[2], x1 = 0.201 | 911.14 ± 2.8 | 904.23 ± 2.9 | 900.97 ± 2.9 | 895.75 ± 3 | – | – | – | –
[2], x1 = 0.3173 | 925.73 ± 2.5 | 919.17 ± 2.6 | 915.76 ± 2.7 | 910.6 ± 2.8 | – | – | – | –
[2], x1 = 0.4192 | 937.94 ± 2.4 | 931.66 ± 2.5 | 928.1 ± 2.5 | 923 ± 2.6 | – | – | – | –
[2], x1 = 0.5126 | 948.66 ± 2.2 | 942.64 ± 2.3 | 938.93 ± 2.3 | 933.89 ± 2.4 | – | – | – | –
[2], x1 = 0.6139 | 959.83 ± 2 | 954.08 ± 2.1 | 950.21 ± 2.2 | 945.24 ± 2.2 | – | – | – | –
[2], x1 = 0.7067 | 969.67 ± 1.9 | 964.17 ± 1.9 | 960.12 ± 2 | 955.22 ± 2.1 | – | – | – | –
[2], x1 = 0.797 | 978.88 ± 1.7 | 973.61 ± 1.8 | 969.41 ± 1.9 | 964.57 ± 1.9 | – | – | – | –
[2], x1 = 0.9002 | 989.01 ± 1.6 | 983.99 ± 1.6 | 979.62 ± 1.7 | 974.85 ± 1.8 | – | – | – | –
[2], x1 = 1 | 998.44 ± 1.4 | 993.65 ± 1.5 | 989.15 ± 1.6 | 984.37 ± 1.6 | – | – | – | –

c1ccccc1 [benzene]
Details | mass density, 288.15 K [kg/m3] | mass density, 293.15 K [kg/m3] | mass density, 298.15 K [kg/m3] | mass density, 303.15 K [kg/m3] | refractive index, 288.15 K | refractive index, 293.15 K | refractive index, 298.15 K | refractive index, 303.15 K
[3] | – | – | – | – | 1.505 ± 0.0096 | 1.5011 ± 0.0096 | 1.4979 ± 0.0097 | 1.4849 ± 0.0099
[4] | 884.11 ± 3.2 | 876.53 ± 3.3 | 873.6 ± 3.4 | 868.23 ± 3.5 | – | – | – | –

c1ccccc1 [benzene] + COc1ccccc1
x2 = 0
Details | mass density, 288.15 K [kg/m3] | mass density, 293.15 K [kg/m3] | mass density, 298.15 K [kg/m3] | mass density, 303.15 K [kg/m3] | refractive index, 288.15 K | refractive index, 293.15 K | refractive index, 298.15 K | refractive index, 303.15 K
[1] | – | – | – | – | 1.505 ± 0.0096 | 1.5011 ± 0.0096 | 1.4979 ± 0.0097 | 1.4849 ± 0.0099
[2] | 884.11 ± 3.2 | 876.53 ± 3.3 | 873.6 ± 3.4 | 868.23 ± 3.5 | – | – | – | –

Cc1ccccc1 [toluene]
Details | mass density, 288.15 K [kg/m3] | mass density, 293.15 K [kg/m3] | mass density, 298.15 K [kg/m3] | mass density, 303.15 K [kg/m3] | refractive index, 288.15 K | refractive index, 293.15 K | refractive index, 298.15 K | refractive index, 303.15 K
[3] | – | – | – | – | 1.4996 ± 0.0096 | 1.497 ± 0.0096 | 1.4944 ± 0.0096 | 1.4918 ± 0.0096
[4] | 871.41 ± 0.84 | 866.87 ± 0.86 | 862.2 ± 0.88 | 857.46 ± 0.9 | – | – | – | –

Cc1ccccc1 [toluene] + COc1ccccc1
x2 = 0
Details | mass density, 288.15 K [kg/m3] | mass density, 293.15 K [kg/m3] | mass density, 298.15 K [kg/m3] | mass density, 303.15 K [kg/m3] | refractive index, 288.15 K | refractive index, 293.15 K | refractive index, 298.15 K | refractive index, 303.15 K
[1] | – | – | – | – | 1.4996 ± 0.0096 | 1.497 ± 0.0096 | 1.4944 ± 0.0096 | 1.4918 ± 0.0096
[2] | 871.41 ± 0.84 | 866.87 ± 0.86 | 862.2 ± 0.88 | 857.46 ± 0.9 | – | – | – | –
